Test results: patent publication US10864188B2, “Anti-microbial composition” (SEPTEOS, priority 2010, dated 2020)

Assays:
Other Gram - rods = experiment: MIC of pure components in Mueller Hinton gelose; type: cell-based; parameters: unit not given beside the values; settings: Other Gram - rods n = 15
[1] = system: Staphylococcus And Enterococcus; experiment: MIC of pure components in Mueller Hinton gelose; type: cell-based; parameters: MIC 50 / MIC 90: unit not given beside the values; settings: Staphylococcus And Enterococcus n = 14; for MIC Range: in µg/mL
Enterobacteriaceae = experiment: MIC of pure components in Mueller Hinton gelose; type: cell-based; parameters: unit not given beside the values; settings: Enterobacteriaceae n = 13
MRSA = settings: cited from earlier work

| SMILES | MIC Range (Other Gram - rods) | MIC 50 (Other Gram - rods) | MIC 90 (Other Gram - rods) | MIC Range [1] | further results |
| --- | --- | --- | --- | --- | --- |
| O=C(OCc1ccccc1)c1ccccc1 [Benzyl benzoate, benzyl benzoate] | >10000 | – | – | – | – |
| C=C1CC/C=C(\C)CC[C@@H]2[C@@H]1CC2(C)C [Caryophyllene, beta-caryophyllene] | >10000 | >10000 | >10000 | – | MIC 50 [1]: >10000; MIC 90 [1]: >10000; MIC 50 (Enterobacteriaceae): >10000; MIC 90 (Enterobacteriaceae): >10000; MIC Range (Enterobacteriaceae): >10000 |
| CC12CCC(CC1)C(C)(C)O2 [Cineole, cineole] | >10000 | – | – | – | – |
| O=C/C=C/c1ccccc1 [Cinnamaldehyde, trans-cinnamaldehyde] | – | 600 | 1250 | 150-300 | bibliographic kinetic data on the main compound (MRSA): 1.7 h; MIC Range (Other Gram - rods; in µg/mL): 150-1250; MIC Range (Enterobacteriaceae; in µg/mL): 150-600 |
| CC(=O)OCC=Cc1ccccc1 [Cinnamyl acetate, cinnamyl acetate] | – | >10000 | >10000 | 5000-10000 | – |
| C=CC(C)(O)CCC=C(C)C (stereo not shown) [Linalool, linalool] | – | >10000 | >10000 | 2500-10000 | – |
